Laboratory results from paper PMC9516332 (Frontiers in Oncology, 2022).
Like-named read-outs stand apart in the source and are kept apart here.

Legend:
AP-1060 (ETV6-NTRK3) = test: Cell viability assay
134 cancer cell lines = test: Cell viability assay (ATPlite, 72 hours), IC50 on cancer cell line panel

**Q.** What does the source list for `CO[C@]1(C(=O)N[C@@H](C)c2ccc(-n3cc(F)cn3)nc2)CC[C@H](c2nc(C)cc(Nc3cc(C)[nH]n3)n2)CC1` [pralsetinib]?
**A.** higher sensitivity of AP-1060 to pralsetinib compared to selpercatinib (AP-1060 (ETV6-NTRK3); cell viability): ~20 fold; IC50 (AP-1060 (ETV6-NTRK3); read-out: IC50 in cell proliferation assay): 0.206 µM; IC50 (134 cancer cell lines; HEC-6, read-out: IC50 in cell proliferation assay, HEC-6 cell line (EGFR p.A289V)): 16.9 µM; IC50 (134 cancer cell lines; Homo sapiens, 769-P, read-out: IC50 in cell proliferation assay, cell line 769-P): 3.15 µM; IC50 (134 cancer cell lines; Homo sapiens, 786-0, read-out: IC50 in cell proliferation assay, cell line 786-O): 3.96 µM; IC50 (134 cancer cell lines; Homo sapiens, A 172, read-out: IC50 in cell proliferation assay, cell line A-172): 0.758 µM; IC50 (134 cancer cell lines; Homo sapiens, A204, read-out: IC50 in cell proliferation assay, cell line A-204): 0.679 µM; IC50 (134 cancer cell lines; Homo sapiens, A498, read-out: IC50 in cell proliferation assay, cell line A-498): 8.94 µM; IC50 (134 cancer cell lines; Homo sapiens, A549, read-out: IC50 in cell proliferation assay, cell line A-549): 8.17 µM; IC50 (134 cancer cell lines; Homo sapiens, A704, read-out: IC50 in cell proliferation assay, cell line A-704): 2.49 µM; IC50 (134 cancer cell lines; Homo sapiens, A-375, read-out: IC50 in cell proliferation assay, cell line A-375 (BRAF p.V600E)): 12.1 µM; IC50 (134 cancer cell lines; Homo sapiens, A-427, read-out: IC50 in cell proliferation assay, cell line A-427): 1.1 µM; IC50 (134 cancer cell lines; Homo sapiens, ACHN, read-out: IC50 in cell proliferation assay, cell line ACHN): 2.08 µM; IC50 (134 cancer cell lines; Homo sapiens, AN3-CA, read-out: IC50 in cell proliferation assay, cell line AN3-CA (FGFR2 p.N549K)): 0.9 µM; IC50 (134 cancer cell lines; Homo sapiens, ASPC1, read-out: IC50 in cell proliferation assay, cell line AsPC-1): 25.9 µM; IC50 (134 cancer cell lines; Homo sapiens, AU565, read-out: IC50 in cell proliferation assay, cell line AU565 (ERBB2 amplification)): 8.92 µM; IC50 (134 cancer cell lines; Homo sapiens, BT-20, read-out: IC50 in cell proliferation assay, cell line BT-20): 12.6 µM; IC50 (134 cancer cell lines; Homo sapiens, BT-474, read-out: IC50 in cell proliferation assay, cell line BT-474 (ERBB2 amplification)): > 31.6 µM; IC50 (134 cancer cell lines; Homo sapiens, BT-549, read-out: IC50 in cell proliferation assay, cell line BT-549): 1.93 µM; IC50 (134 cancer cell lines; Homo sapiens, BXPC-3, read-out: IC50 in cell proliferation assay, cell line BxPC-3): 3.46 µM; IC50 (134 cancer cell lines; Homo sapiens, C-33-A, read-out: IC50 in cell proliferation assay, cell line C-33 A): 0.981 µM; IC50 (134 cancer cell lines; Homo sapiens, CAL-27, read-out: IC50 in cell proliferation assay, cell line CAL-27): 1.95 µM; IC50 (134 cancer cell lines; Homo sapiens, CCF-STTG1, read-out: IC50 in cell proliferation assay, cell line CCF-STTG1): 5.77 µM; IC50 (134 cancer cell lines; Homo sapiens, CCRF-CEM, read-out: IC50 in cell proliferation assay, cell line CCRF-CEM): 13.3 µM; IC50 (134 cancer cell lines; Homo sapiens, COLO 205, read-out: IC50 in cell proliferation assay, cell line COLO 205 (BRAF p.V600E)): 12.9 µM; IC50 (134 cancer cell lines; Homo sapiens, COLO-829, read-out: IC50 in cell proliferation assay, cell line COLO 829 (BRAF p.V600E)): 24.7 µM; IC50 (134 cancer cell lines; Homo sapiens, DLD-1, read-out: IC50 in cell proliferation assay, cell line DLD-1): 9.98 µM; IC50 (134 cancer cell lines; Homo sapiens, DU-4475, read-out: IC50 in cell proliferation assay, cell line DU4475 (BRAF p.V600E)): 11.8 µM; IC50 (134 cancer cell lines; Homo sapiens, Daoy, read-out: IC50 in cell proliferation assay, cell line Daoy): 10.1 µM; IC50 (134 cancer cell lines; Homo sapiens, DoTc2-4510, read-out: IC50 in cell proliferation assay, cell line DoTc2 4510): 3.5 µM; IC50 (134 cancer cell lines; Homo sapiens, EOL1, read-out: IC50 in cell proliferation assay, cell line EoL-1 (FIP1L1-PDGFRA)): 0.016 µM; IC50 (134 cancer cell lines; Homo sapiens, FaDu, read-out: IC50 in cell proliferation assay, cell line FaDu): 3.65 µM; IC50 (134 cancer cell lines; Homo sapiens, G-361, read-out: IC50 in cell proliferation assay, cell line G-361 (BRAF p.V600E)): 17.6 µM; IC50 (134 cancer cell lines; Homo sapiens, HCC827, read-out: IC50 in cell proliferation assay, cell line HCC827 (EGFR exon19del)): 3.01 µM; IC50 (134 cancer cell lines; Homo sapiens, HCC4006, read-out: IC50 in cell proliferation assay, cell line HCC4006 (EGFR exon19del)): 5.93 µM; IC50 (134 cancer cell lines; Homo sapiens, HCT-15, read-out: IC50 in cell proliferation assay, cell line HCT 15): 5.73 µM; IC50 (134 cancer cell lines; Homo sapiens, HCT-116, read-out: IC50 in cell proliferation assay, cell line HCT 116): 10.3 µM; IC50 (134 cancer cell lines; Homo sapiens, HEC-1, read-out: IC50 in cell proliferation assay, HEC-1 cell line): 2.32 µM; IC50 (134 cancer cell lines; Homo sapiens, HEC-1B, read-out: IC50 in cell proliferation assay, HEC-1-B cell line (EGFR p.A864V)): 0.608 µM; IC50 (134 cancer cell lines; Homo sapiens, HL-60, read-out: IC50 in cell proliferation assay, HL-60 cell line): 25.2 µM; IC50 (134 cancer cell lines; Homo sapiens, HT, read-out: IC50 in cell proliferation assay, HT cell line): > 31.6 µM; IC50 (134 cancer cell lines; Homo sapiens, HT-1080, read-out: IC50 in cell proliferation assay, HT-1080 cell line): 8.1 µM; IC50 (134 cancer cell lines; Homo sapiens, Hs746T, read-out: IC50 in cell proliferation assay, Hs 746.T cell line (MET exon14skip + amplification)): 9.64 µM; IC50 (134 cancer cell lines; Homo sapiens, Hs-578T, read-out: IC50 in cell proliferation assay, Hs 578T cell line): 1.15 µM; IC50 (134 cancer cell lines; Homo sapiens, HuTu80, read-out: IC50 in cell proliferation assay, HuTu 80 cell line): 0.864 µM; IC50 (134 cancer cell lines; Homo sapiens, J82, read-out: IC50 in cell proliferation assay, J82 cell line): 1.74 µM; IC50 (134 cancer cell lines; Homo sapiens, Jurkat E6.1, read-out: IC50 in cell proliferation assay, Jurkat E6.1 cell line): 11.4 µM; IC50 (134 cancer cell lines; Homo sapiens, K562, read-out: IC50 in cell proliferation assay, K-562 cell line): 5.58 µM; IC50 (134 cancer cell lines; Homo sapiens, KATO III, read-out: IC50 in cell proliferation assay, KATO III cell line (FGFR2 amplification)): 0.273 µM; IC50 (134 cancer cell lines; Homo sapiens, KG-1, read-out: IC50 in cell proliferation assay, KG-1 cell line (FGFR1OP2-FGFR1)): 0.131 µM; IC50 (134 cancer cell lines; Homo sapiens, KLE, read-out: IC50 in cell proliferation assay, KLE cell line): 1.82 µM; IC50 (134 cancer cell lines; Homo sapiens, KMS-11, read-out: IC50 in cell proliferation assay, KMS-11 cell line (FGFR3 p.Y373C)): 0.394 µM; IC50 (134 cancer cell lines; Homo sapiens, KU812, read-out: IC50 in cell proliferation assay, Ku812 cell line): 3.74 µM; IC50 (134 cancer cell lines; Homo sapiens, Kasumi 1, read-out: IC50 in cell proliferation assay, Kasumi-1 cell line (KIT p.N822K)): 0.184 µM; IC50 (134 cancer cell lines; Homo sapiens, LC-2-ad, read-out: IC50 in cell proliferation assay, LC-2/ad cell line (CCDC6-RET)): 0.054 µM; IC50 (134 cancer cell lines; Homo sapiens, LNCaP-Clone-FGC, read-out: IC50 in cell proliferation assay, LNCaP clone FGC cell line): > 31.6 µM; IC50 (134 cancer cell lines; Homo sapiens, LS174T, read-out: IC50 in cell proliferation assay, LS174T cell line): 2.29 µM; IC50 (134 cancer cell lines; Homo sapiens, LS-411N, read-out: IC50 in cell proliferation assay, LS411N cell line (BRAF p.V600E)): 25.6 µM; IC50 (134 cancer cell lines; Homo sapiens, LoVo, read-out: IC50 in cell proliferation assay, LoVo cell line): 1.52 µM; IC50 (134 cancer cell lines; Homo sapiens, MCF7, read-out: IC50 in cell proliferation assay, MCF-7 cell line): > 31.6 µM; IC50 (134 cancer cell lines; Homo sapiens, MDA-MB-231, read-out: IC50 in cell proliferation assay, MDA-MB-231 cell line): 0.555 µM; IC50 (134 cancer cell lines; Homo sapiens, MDA-MB-453, read-out: IC50 in cell proliferation assay, MDA-MB-453 cell line): > 31.6 µM; IC50 (134 cancer cell lines; Homo sapiens, MDA-MB-468, read-out: IC50 in cell proliferation assay, MDA-MB-468 cell line): 8.52 µM; IC50 (134 cancer cell lines; Homo sapiens, MG-63, read-out: IC50 in cell proliferation assay, MG-63 cell line): 1.88 µM; IC50 (134 cancer cell lines; Homo sapiens, MIA PaCa-2, read-out: IC50 in cell proliferation assay, MIA PaCa-2 cell line): 1.56 µM; IC50 (134 cancer cell lines; Homo sapiens, MKN-45, read-out: IC50 in cell proliferation assay, MKN45 cell line (MET amplification)): > 31.6 µM; IC50 (134 cancer cell lines; Homo sapiens, MOLM-13, read-out: IC50 in cell proliferation assay, MOLM-13 cell line (FLT3 ITD)): 0.033 µM
